Assay results taken from ChEMBL document CHEMBL1201862, “PubChem BioAssay data set” (2004).
Activity calls are given as the source filed them.

Legend:
[1] = non-specific 3'UTR reporter inhibition in Clone20-Shn3RL – cell-based, Renilla luciferase, cherry-picked, counter-screen for Shn3 inhibitor project, dose response (AID 624133); format: functional
[2] = EF1alpha-driven Renilla reporter with control 3'UTR suppression – Clone20-Shn3RL cells, dual-Glo, cherry-pick, set 2, counter-screen for Shn3 3'UTR targeting project, dose response (AID 720724); format: functional, cell-based; settings: Dual-Go Shn3RL
[3] = luciferase reporter signal suppression in cells – H4 neuroglioma cells, luminescence, dose response (AID 1990); format: functional, cell-based
[4] = Shn3 transcript knock-down in Clone20 cells – cell-based, qPCR, cherry-pick, dose response (AID 743415); format: functional
[5] = Shn3 3'UTR reporter signal decrease – cell-based, Clone20 osteoblasts, firefly luciferase, cherry-pick, set 2, Schnurri-3 inhibitor project, dose response (AID 720490); format: functional;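 note: actives lower the luminescence signal as inhibitors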
[6] = loss of viability in HepG2 cells – cell-based, CellTiter-Glo, cherry-picked, cytotoxicity control for Shn3 inhibitor project, dose response (AID 624134); format: functional
[7] = reduction of Shn3 3'UTR-driven luciferase in osteoblasts – cell-based, Clone20 osteoblasts, firefly luciferase, cherry-picked, dose response (AID 624132); format: functional;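 note: firefly luciferase luminescence from reporter carrying the Shn3 3'UTR in osteoblasts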
[8] = alpha-synuclein stem-loop luciferase translation blockers – H4 neuroglioma cells, luminescence, confirmation (AID 1988); format: functional, cell-based
[9] = target: Tyrosyl-DNA phosphodiesterase 2 (Homo sapiens, UniProt O95551); assay: potency against TDP2 phosphodiesterase activity – biochemical, epi absorbance, IC50, dose response (AID 743297)
Hexokinase HKDC1 = target: T1, Hexokinase HKDC1 (Homo sapiens, UniProt Q2TB90); assay: inhibition of HKDC1 glucose phosphorylation – biochemical, W721R variant, dose response (AID 504729); format: functional
T1 sequence (Q2TB90 whole entry): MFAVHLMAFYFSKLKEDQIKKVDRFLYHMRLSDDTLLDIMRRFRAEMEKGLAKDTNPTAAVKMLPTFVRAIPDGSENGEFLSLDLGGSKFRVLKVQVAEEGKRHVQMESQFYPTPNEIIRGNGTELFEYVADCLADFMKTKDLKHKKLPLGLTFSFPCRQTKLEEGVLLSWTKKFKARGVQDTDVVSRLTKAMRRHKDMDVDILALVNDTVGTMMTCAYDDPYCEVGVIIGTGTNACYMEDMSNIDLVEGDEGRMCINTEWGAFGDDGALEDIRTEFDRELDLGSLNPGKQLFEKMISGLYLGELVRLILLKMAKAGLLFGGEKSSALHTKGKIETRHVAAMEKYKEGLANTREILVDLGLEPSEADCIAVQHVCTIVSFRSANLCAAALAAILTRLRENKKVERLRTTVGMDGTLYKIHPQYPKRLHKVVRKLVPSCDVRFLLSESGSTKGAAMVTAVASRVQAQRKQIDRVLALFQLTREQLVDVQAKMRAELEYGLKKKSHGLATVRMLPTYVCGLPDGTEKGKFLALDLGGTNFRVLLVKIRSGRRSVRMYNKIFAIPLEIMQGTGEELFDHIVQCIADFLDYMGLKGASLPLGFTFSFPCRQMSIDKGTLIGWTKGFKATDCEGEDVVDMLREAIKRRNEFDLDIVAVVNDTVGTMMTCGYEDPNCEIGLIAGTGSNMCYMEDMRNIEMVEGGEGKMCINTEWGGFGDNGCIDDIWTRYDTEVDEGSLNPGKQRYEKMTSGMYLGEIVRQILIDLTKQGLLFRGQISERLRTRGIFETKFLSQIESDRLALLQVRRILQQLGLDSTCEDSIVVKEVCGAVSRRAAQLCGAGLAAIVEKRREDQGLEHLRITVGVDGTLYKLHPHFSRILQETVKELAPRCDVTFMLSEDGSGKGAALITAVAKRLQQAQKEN

Genome polyprotein = Genome polyprotein (dengue virus type 2, UniProt P29990); assay: flavivirus cap methylation enzyme inhibition – biochemical, confirmation dose response, primary screen (AID 588689); format: functional
[10] = target: 1-phosphatidylinositol 4,5-bisphosphate phosphodiesterase beta-3 (Homo sapiens, UniProt Q01970); assay: Fluorescence-based biochemical high throughput dose response assay to identify inhibitors of phospholipase C isozymes (PLC-B3).
[11] = NIH-3T3 fibroblast cytotoxicity, dose response, cytotoxicity control, cell-based, fluorescence, Alamar Blue, secondary assay (AID 2327); format: functional;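 note: NIH-3T3 mouse fibroblasts cultured with fluconazole at 8 µg/mL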
[12] = THP-1 cell cytotoxicity, dose response, cytotoxicity control for non-replicating M. tuberculosis project (AID 489025); format: functional
[13] = target: 1-phosphatidylinositol 4,5-bisphosphate phosphodiesterase gamma-1 (Homo sapiens, UniProt P19174); assay: Counterscreen for inhibitors of phospholipase C isozymes (PLC-B3): Fluorescence-based biochemical high throughput dose response assay to identify inhibitors of phospholipase C isozymes (PLC-gamma1).
[14] = Vero E6 cell cytotoxicity, dose response, cytotoxicity control for non-replicating M. tuberculosis project, secondary assay (AID 492998); format: functional, VeroE6; settings: Vero C1008
[15] = fluconazole-exposed Candida albicans growth modulators – fluorescence, retest, confirmation (AID 2467); format: functional, cell-based
cells = settings: A549
[16] = Trypanosoma cruzi growth suppression in host cells – NIH3T3 host cells, beta-gal luminescence, confirmation (AID 2044); format: functional, cell-based;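 note: intracellular parasites grown in NIH/3T3 mouse fibroblasts as host cells; luminescent beta-galactosidase reporter signal from transgenic T. cruzi replicating inside host cells; inhibitors lower the luminescence signal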
[17] = NIH3T3 cell viability loss – ATP luminescence, mouse fibroblasts, counter-screen, dose response (AID 2010); format: functional, cell-based;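 note: cells exposed to compound for about 90 hours before reading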
[18] = blockers of FN fibrillogenesis by fibroblasts – AH1F cells, Alexa488-FN fluorescence, cherry-picks, dose response (AID 1035475); format: functional, cell-based
[19] = target: Endoplasmic reticulum aminopeptidase 1 (Homo sapiens, UniProt Q9NZ08); assay: inhibition of human ERAP1 enzyme activity – biochemical, cherry-pick, set 2, plate reader, dose response (AID 743314)
CAAX prenyl protease 2 = target: T2, CAAX prenyl protease 2 (Saccharomyces cerevisiae S288c, UniProt Q03530); format: biochemical
T2 sequence (Q03530 whole entry): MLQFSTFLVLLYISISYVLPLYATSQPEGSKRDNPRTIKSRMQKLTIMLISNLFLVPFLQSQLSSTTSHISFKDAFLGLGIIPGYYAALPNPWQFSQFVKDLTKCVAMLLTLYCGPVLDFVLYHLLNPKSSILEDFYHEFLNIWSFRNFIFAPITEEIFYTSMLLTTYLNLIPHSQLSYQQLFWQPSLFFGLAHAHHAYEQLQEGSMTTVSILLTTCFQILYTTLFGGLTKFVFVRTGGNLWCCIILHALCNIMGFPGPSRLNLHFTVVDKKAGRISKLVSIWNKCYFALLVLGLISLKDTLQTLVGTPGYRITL

[20] = viability loss in HepG2 hepatoma cells – cell-based, ATP luminescence, cherry-pick, activator set 2, cytotoxicity control, dose response (AID 1053143); format: functional
[21] = viability loss in A549 lung cancer cells – cell-based, cherry-picks, […], cytotoxicity control, dose response (AID 1053119); format: functional
[22] = viability loss in HepG2 hepatoma cells – cell-based, cherry-picks, set 5, cytotoxicity control, dose response (AID 1053118); format: functional
[23] = viability loss in HEK293 kidney cells – cell-based, cherry-picks, set 5, cytotoxicity control, dose response (AID 1053117); format: functional

Sequence of Endoplasmic reticulum aminopeptidase 1 (Q9NZ08 whole entry): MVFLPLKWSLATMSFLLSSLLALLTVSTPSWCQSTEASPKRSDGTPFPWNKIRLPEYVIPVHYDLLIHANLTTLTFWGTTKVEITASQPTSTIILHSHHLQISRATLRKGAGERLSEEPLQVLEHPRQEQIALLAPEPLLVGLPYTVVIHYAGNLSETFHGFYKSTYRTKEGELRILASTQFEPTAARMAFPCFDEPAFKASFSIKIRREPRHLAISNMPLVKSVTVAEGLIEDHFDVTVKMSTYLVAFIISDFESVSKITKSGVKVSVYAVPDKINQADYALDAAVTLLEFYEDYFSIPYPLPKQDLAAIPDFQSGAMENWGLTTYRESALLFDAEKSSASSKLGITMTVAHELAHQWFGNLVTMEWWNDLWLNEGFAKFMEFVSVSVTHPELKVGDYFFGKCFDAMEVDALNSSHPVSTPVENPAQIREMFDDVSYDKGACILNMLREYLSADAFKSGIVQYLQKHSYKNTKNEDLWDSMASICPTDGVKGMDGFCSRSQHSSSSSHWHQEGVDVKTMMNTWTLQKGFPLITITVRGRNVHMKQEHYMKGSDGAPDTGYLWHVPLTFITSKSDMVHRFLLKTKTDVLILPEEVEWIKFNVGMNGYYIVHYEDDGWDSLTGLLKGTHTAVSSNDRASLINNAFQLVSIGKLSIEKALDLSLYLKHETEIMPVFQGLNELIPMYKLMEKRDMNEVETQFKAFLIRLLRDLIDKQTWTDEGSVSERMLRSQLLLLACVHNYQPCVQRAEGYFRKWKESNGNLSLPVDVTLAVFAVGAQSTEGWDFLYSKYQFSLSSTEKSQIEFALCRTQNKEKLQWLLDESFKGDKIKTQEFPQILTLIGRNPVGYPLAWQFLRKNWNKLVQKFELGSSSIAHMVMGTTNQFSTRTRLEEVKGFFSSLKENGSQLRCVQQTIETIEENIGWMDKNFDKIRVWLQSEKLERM
Sequence of 1-phosphatidylinositol 4,5-bisphosphate phosphodiesterase gamma-1 (P19174 whole entry): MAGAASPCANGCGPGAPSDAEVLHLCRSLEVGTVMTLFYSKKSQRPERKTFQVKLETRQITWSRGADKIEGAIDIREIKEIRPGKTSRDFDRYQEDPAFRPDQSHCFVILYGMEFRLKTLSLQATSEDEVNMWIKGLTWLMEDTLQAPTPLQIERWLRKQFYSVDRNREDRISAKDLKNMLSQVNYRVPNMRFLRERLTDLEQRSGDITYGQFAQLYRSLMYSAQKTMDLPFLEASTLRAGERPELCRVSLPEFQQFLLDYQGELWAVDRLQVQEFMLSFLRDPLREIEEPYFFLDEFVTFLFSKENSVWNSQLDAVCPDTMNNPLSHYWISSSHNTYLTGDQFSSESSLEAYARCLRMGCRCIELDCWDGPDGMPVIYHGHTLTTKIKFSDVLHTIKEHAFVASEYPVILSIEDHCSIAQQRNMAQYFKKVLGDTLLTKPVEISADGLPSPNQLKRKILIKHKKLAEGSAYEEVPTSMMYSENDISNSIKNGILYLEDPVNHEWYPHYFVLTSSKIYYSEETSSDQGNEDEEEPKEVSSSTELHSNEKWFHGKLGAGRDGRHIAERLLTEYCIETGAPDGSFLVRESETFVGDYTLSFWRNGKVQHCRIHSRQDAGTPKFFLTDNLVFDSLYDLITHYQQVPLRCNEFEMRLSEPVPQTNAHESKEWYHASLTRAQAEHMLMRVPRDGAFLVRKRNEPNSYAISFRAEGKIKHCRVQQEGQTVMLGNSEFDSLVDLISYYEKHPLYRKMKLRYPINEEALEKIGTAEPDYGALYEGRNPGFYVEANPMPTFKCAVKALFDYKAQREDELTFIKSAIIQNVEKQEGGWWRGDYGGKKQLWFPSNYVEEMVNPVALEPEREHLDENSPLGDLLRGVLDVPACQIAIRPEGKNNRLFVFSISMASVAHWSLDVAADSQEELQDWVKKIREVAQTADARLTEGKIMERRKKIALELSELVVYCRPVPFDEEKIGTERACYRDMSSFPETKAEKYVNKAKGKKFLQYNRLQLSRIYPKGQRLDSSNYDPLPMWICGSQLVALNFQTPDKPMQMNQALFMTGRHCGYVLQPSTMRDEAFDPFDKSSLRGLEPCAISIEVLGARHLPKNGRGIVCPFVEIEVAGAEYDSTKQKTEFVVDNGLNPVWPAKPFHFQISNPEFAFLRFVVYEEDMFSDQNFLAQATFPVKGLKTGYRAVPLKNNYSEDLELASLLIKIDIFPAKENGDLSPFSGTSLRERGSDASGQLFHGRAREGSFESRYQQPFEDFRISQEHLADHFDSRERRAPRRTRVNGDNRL
Sequence of 1-phosphatidylinositol 4,5-bisphosphate phosphodiesterase beta-3 (Q01970 whole entry): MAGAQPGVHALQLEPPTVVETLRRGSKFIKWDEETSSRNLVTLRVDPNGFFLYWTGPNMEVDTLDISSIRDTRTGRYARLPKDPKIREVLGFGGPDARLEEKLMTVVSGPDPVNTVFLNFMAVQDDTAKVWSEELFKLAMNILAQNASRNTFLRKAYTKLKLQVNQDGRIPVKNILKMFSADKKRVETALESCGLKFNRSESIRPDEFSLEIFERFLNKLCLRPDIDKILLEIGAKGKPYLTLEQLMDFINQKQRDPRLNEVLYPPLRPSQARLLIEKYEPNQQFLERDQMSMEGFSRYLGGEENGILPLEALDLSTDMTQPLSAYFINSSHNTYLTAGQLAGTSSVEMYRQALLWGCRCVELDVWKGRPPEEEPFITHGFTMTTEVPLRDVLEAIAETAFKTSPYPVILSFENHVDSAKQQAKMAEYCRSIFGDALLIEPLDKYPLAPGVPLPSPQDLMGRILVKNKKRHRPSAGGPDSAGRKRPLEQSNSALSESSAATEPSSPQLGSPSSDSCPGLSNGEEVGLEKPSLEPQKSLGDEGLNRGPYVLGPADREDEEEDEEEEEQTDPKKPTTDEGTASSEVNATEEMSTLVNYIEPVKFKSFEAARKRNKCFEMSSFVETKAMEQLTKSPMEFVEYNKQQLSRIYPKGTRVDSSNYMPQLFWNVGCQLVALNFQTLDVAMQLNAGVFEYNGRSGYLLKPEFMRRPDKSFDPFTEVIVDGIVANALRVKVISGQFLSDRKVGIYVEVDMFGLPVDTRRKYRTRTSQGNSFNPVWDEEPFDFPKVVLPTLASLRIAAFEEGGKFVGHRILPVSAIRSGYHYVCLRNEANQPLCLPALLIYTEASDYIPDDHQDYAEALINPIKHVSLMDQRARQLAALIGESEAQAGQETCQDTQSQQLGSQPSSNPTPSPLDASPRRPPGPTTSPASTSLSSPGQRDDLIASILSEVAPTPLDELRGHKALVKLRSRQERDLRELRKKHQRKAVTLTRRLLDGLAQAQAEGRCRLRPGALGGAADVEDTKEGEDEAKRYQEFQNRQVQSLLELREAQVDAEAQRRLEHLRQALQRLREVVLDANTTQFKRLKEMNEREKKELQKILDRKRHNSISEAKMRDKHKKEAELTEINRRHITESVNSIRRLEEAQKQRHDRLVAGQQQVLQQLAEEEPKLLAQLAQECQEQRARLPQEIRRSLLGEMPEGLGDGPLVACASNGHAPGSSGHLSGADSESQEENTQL
Sequence of Genome polyprotein (P29990 2492-3391 limits assumed): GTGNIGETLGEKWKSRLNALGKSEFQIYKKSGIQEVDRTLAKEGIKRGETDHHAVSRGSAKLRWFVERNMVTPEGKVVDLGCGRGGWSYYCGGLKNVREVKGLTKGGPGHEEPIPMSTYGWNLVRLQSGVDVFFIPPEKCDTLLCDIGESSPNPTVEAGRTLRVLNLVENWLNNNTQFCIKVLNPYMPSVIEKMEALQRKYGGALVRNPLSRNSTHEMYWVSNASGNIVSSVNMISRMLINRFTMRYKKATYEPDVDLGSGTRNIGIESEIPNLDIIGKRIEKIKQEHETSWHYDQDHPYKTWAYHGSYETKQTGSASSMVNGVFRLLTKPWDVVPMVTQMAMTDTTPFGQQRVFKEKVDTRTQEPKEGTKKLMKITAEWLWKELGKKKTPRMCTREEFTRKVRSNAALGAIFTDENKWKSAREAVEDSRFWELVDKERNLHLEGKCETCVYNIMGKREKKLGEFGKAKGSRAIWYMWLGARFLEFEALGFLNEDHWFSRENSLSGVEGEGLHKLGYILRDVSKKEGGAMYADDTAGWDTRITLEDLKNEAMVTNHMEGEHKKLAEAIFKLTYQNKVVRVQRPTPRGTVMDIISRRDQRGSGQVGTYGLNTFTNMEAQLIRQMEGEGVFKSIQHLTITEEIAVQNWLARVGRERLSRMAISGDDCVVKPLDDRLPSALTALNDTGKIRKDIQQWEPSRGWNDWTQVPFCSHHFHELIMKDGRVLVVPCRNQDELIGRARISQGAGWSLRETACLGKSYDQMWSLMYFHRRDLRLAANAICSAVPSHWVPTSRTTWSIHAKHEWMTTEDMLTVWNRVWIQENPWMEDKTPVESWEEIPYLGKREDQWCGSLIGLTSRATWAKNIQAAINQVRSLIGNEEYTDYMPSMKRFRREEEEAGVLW
Sequence of Tyrosyl-DNA phosphodiesterase 2 (O95551 whole entry): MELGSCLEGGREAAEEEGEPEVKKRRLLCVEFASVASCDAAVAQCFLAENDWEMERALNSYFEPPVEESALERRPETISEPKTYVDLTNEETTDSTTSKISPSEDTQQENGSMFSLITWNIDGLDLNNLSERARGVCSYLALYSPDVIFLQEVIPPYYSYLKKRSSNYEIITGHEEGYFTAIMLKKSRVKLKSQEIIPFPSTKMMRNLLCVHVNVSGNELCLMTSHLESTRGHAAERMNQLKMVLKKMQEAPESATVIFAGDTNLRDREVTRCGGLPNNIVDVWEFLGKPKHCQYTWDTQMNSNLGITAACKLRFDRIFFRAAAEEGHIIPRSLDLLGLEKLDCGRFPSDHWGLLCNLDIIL

COc1ccc(NC(=O)c2nc(S(=O)(=O)Cc3cccc(C)c3)ncc2Cl)c(OC)c1
AC50 [1]: 8.06 µM (active) | AC50 [2]: 3.35 µM (active) | EC50 [3]: 19.2 µM (active) | AC50 [4]: 10 µM (active) | AC50 [5]: 1.48 µM (active) | AC50 [6]: > 70 µM (inactive) | AC50 [7]: 0.299 µM (active) | EC50 [8]: 36.7 µM (active)

O=S(=O)(Nc1ccc(O)c2ccccc12)c1cccs1
IC50 [9]: > 128 µM (inactive) | IC50 (Hexokinase HKDC1): 9.75 µM (active) | IC50 (Genome polyprotein): 62.6 µM (active)

Cc1ccc(S(=O)(=O)CCC(=O)Nc2nc(-c3ccncc3)cs2)cc1
IC50 [10]: > 122 µM (inactive) | EC50 [11]: 17.1 µM (inconclusive) | CC50 [12]: > 40 µM (active) | IC50 [13]: > 122 µM (inactive) | CC50 [14]: > 20 µM (active) | EC50 [15]: 6.58 µM (active)

Cc1ccc2c(c1)N(C(=O)CCC(=O)NCCCN1CCOCC1)CC(C)O2 (configuration not stated)
AC50 (cells): > 52 µM (inactive)

O=C(Nc1cc(Sc2nc3ccccc3s2)cc([N+](=O)[O-])c1)c1ccccc1F
EC50 [16]: 1.92 µM (active) | EC50 [17]: > 60 µM (not active) | AC50 [18]: 24.3 µM (active)

CCOC(=O)C[n+]1ccc2c([nH]c3ccccc32)c1C
AC50 [19]: 11.4 µM (active) | AC50 (CAAX prenyl protease 2): > 100 µM (inactive)

O=C(Nc1ncccc1O)c1ccc(Oc2ccccc2)cc1
AC50 [20]: 26 µM (active)

CO[C@H]1CN(C)C(=O)c2ccc(NC(=O)c3ccc(-c4ccccc4)cc3)cc2OC[C@H](C)NC[C@H]1C
AC50 [21]: 33.9 µM (active) | AC50 [22]: 32.2 µM (active) | AC50 [23]: > 52 µM (inactive)
